Assay results from patent publication US9012470B2 (Dart NeuroScience (Cayman) Ltd., priority 2010, dated 2015).

Key:
[1] = tested on: GABAA receptors; assay: Electrophysiology assay, two-electrode voltage clamp in Xenopus oocytes expressing GABAA receptors; type: cell-based; settings: GABA EC10, screening concentration of 10 μM, subunit combination not stated
Protocol: mRNA was prepared from lyophilized plasmid pellets containing cDNA inserts encoding the specific GABAA receptor subunit. cDNAs encoding the α2, α3, and γ3 subunits were subcloned into pBluescript, SK^−. cDNAs encoding the α1 and α5 subunits were subcloned into prC while cDNA encoding the β2 subunit was subcloned into pcDNA1. The cDNA construct encoding the γ2s subunit is in the pGH19 expression construct. Overnight cultures of transformed DH5a bacterial cells were performed to grow sufficient quantities for maxiprep isolation of the plasmid cDNA. The resulting plasmid cDNA was linearized by digestion with an appropriate restriction enzyme that cleaves distal to the cDNA insert (XbaI for α1,2, β2, and γ3 or NotI for α3,5 and γ2, respectively). Following digestion, plasmid cDNA was treated with proteinase K and extracted with phenol/chloroform/isoamyl alcohol, followed by ethanol precipitation. cDNA quality was assessed by agarose-gel electrophoresis (1.5% agarose gel). Samples were stored at −20° C. until use. In vitro transcription was performed with T7 RNA polymerase. mRNA was then stored at −80° C. until use. Plasmids were linearized with appropriate restriction enzymes before in vitro transcription using the Message Machine kit (Ambion, Austin, Tex.).
GABAA Receptor Expression in Xenopus oocytes.
GABAA receptor expression in Xenopus oocytes: Following 45 min of 0.15% Tricaine anesthesia, an ovarian section containing the follicular oocytes was removed from the frog through a lateral abdominal incision. Oocytes were immediately placed in a calcium-free solution (NaCl 96 mM, MgCl2 1 mM, KCl 2 mM, Hepes 50 mM, pyruvate 2.5 mM, gentamycin 100 μg/mL, penicillin-streptomycin 50 U/mL, pH 7.4). Following 1.5-2 hour incubation in 0.2% collagenase (type II, Sigma Chemical Co., St. Louis, Mo.) at room temperature, individual Dumont stage V and VI oocytes were transferred to an incubator and maintained overnight in Barth's solution (NaCl 84 mM, NaHCO3 2.4 mM, MgSO4 0.82 mM, KCl 1 mM, Ca(NO3)2 0.33 mM, CaCl2 0.41 mM, Tris/HCl 7.5 mM, pyruvate 2.5 mM, gentamycin 50 μg/mL, penicillin-streptomycin, 100 units/mL, pH 7.4) at 18-20° C. and used for experiments 1-5 days post-injection. Oocytes were injected solution using an electronic microinjector (Drummond, Broomall, Pa.) with 50 nL of RNA containing 0.3-0.5 ng of each subunit RNA in a 1:1:1 ratio. The injected oocytes were used for experiments after 1-5 days of incubation in Barth's solution at 18-20° C.
Measurements of ion currents from oocytes expressing GABAA receptors were performed using a Warner two-electrode voltage-clamp amplifier (Warner Instruments, Inc., Foster City, Calif.) (Park-Chung, M., et al. (1999) Brain Res. 830: 72-87 incorporated herein in its entirety). Microelectrodes were fabricated from borosilicate glass capillaries with a programmed pipette puller (Sutter Instrument Co., Calif.). Microelectrode resistance was 1-3 MΩ when filled with 3 M KCl. The oocyte recording chamber was continuously perfused with Ringer solution. Oocytes were clamped at a holding potential of −70 mV during data acquisition. The membrane current was filtered at 10 Hz and sampled at 100 Hz. Compounds were applied by a gravity-driven external perfusion system. The working volume of the recording chamber was 30 μL and the rate of the perfusion was approximately 50 μL/sec. Compound application was 10-20 sec followed by a 90 sec wash. Data acquisition and external perfusion was computer controlled by custom-developed software. All experiments were performed at room temperature (22-24° C.). Dose-response data from each oocyte were fitted to the Hill equation by non-linear regression using the equation: IGABA=Emax/(1+(EC50/c)^n^H)
Emax is the maximum response, EC50 is the concentration producing 50% of the maximal response, nH is the Hill coefficient and c is the concentration of agonist. […]

[2] = tested on: benzodiazepine site of GABAA; assay: Binding assay, benzodiazepine site of GABAA (binding assay 1: rat brain, (3H)-flunitrazepam; binding assay 2: bovine hippocampal membranes, [3H]-RY80); settings: radioligand binding
Method in brief: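 Assay 1: rat whole-brain (minus cerebellum) membranes in Na–K phosphate pH 7.4, 1 nM (3H)-flunitrazepam, 60 min at 25° C., ± 30 μM GABA; nonspecific with 10 μM diazepam. Assay 2: bovine hippocampal membranes, 0.8 nM [3H]-RY80 in 50 mM Tris-Citrate pH 7.8/200 mM NaCl, 60 min at 0-4° C.; nonspecific with 0.5 μM L-655,708. Filtration read-out.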

CCNC(=O)n1ncc2c3nn(-c4ccccc4)c(=O)c-3c[nH]c21 [Compound 6b, N-ethyl-3-oxo-2-phenyl-2,3-dihydrodipyrazolo[3,4-b:3′,4′-d]pyridine-6(5H)-carboxamide]
EP Modulation [1]: D (D indicates negative modulation >20%) | % Inhibition at 0.1 μM ([2]; 0.1 μM test compound): A (A indicates % inhibition >80%) | % Inhibition at 10 μM ([2]; 10 μM test compound): A (A indicates % inhibition >80%)
